Assay results taken from PMC5122374 (Oncotarget, 2016).

How the values were obtained:
EBC-1 cells [1] = experiment: Cell cycle analysis by flow cytometry; format: cell-based, human; conditions: EBC-1, 24 h
Procedure: (§1) After 24 h, cells were collected, fixed and stained with propidium iodide (10 μg/mL) for 30 min, then analyzed using a flow cytometer (FACS Caliber instrument; Becton, Dickinson & Co.). Data were plotted using CellQuest (Becton, Dickinson &Co).

MKN-45 cells [2] = experiment: Cell cycle analysis by flow cytometry; format: cell-based, human; conditions: MKN-45, 24 h
Procedure: as §1

NCI-H441 cells [3] = experiment: HGF-induced Transwell migration assay; format: cell-based, human; conditions: NCI-H441, HGF 100 ng/mL, 24 h
Procedure: (§2) For the migration assay, NCI-H441 cells suspended in serum-free medium (1.5×10^5 cells per well) were seeded in 24-well Transwell plates (pore size, 8 μm; Corning). […] The cultures were maintained for 24 h, followed by the removal of non-motile cells at the top of the filter using a cotton swab. The migrating cells were fixed in paraformaldehyde (4%) and stained with crystal violet (0.1%) for 15 min at room temperature. The dye that was taken up by the cells bound to the membrane was released by the addition of 100 μL 10% acetic acid, and the absorbance of the resulting solution was measured at 595 nm using a multiwell spectrophotometer (SpetraMAX 190, from Molecular Devices, Palo Alto, CA, USA). The assay was performed in triplicate. Images were obtained using an Olympus BX51 microscope.

SNU-5 cells = experiment: Cell proliferation assay (SRB or MTT); format: cell-based; conditions: Homo sapiens, SNU-5, 72 h, read-out: anti-proliferative IC50
Procedure: (§3) Cells were seeded in 96-well tissue culture plates. On the next day, cells were exposed to various concentrations of compounds and further cultured for 72 h. For Human umbilical vascular endothelial cells (HUVEC) (passage 3) were transferred to basal medium (without growth factor and serum) for 24 h before compounds treated for another 24 h. Finally, cell proliferation was determined using sulforhodamine B (SRB) assay, Thiazolyl Blue Tetrazolium Bromide (MTT; Sigma) assay or Cell Counting Kit (CCK-8) assay. IC50 values were calculated by concentration-response curve fitting using a SoftMax pro-based four-parameter method.

EBC-1 cells [4] = experiment: Cell proliferation assay (SRB or MTT); format: cell-based; conditions: Homo sapiens, EBC-1, 72 h; read-out: anti-proliferative IC50
Procedure: as §3

NCI-H1993 cells = experiment: Cell proliferation assay (SRB or MTT); format: cell-based; conditions: Homo sapiens, NCI-H1993, 72 h; read-out: anti-proliferative IC50
Procedure: as §3

MKN-45 cells [5] = experiment: Cell proliferation assay (SRB or MTT); format: cell-based; conditions: Homo sapiens, MKN-45, 72 h, read-out: anti-proliferative IC50
Procedure: as §3

MDCK cells [6] = experiment: HGF-induced cell branching morphogenesis in collagen; format: cell-based, canine; conditions: 5 days
Procedure: MDCK cells at a density of 2×10^4 cells/mL in DMEM medium were mixed with an equal volume of collagen I solution and plated at 0.1 mL/well in a 96-well culture plate. […] The medium was replaced with fresh growth medium every 2 days. Images were obtained using an Olympus IX51 microscope after 5 days.

[7] = Cell proliferation assay, cell panel (SRB or MTT); format: cell-based; conditions: human, panel of cells with low c-Met expression or activation; read-out: cytotoxicity IC50 values
Procedure: as §3

MDCK cells [8] = experiment: HGF-induced scattering assay; format: cell-based, canine; conditions: 18 to 24 h
Procedure: MDCK cells (1.5×10^3 cells per well) were plated in 96-well plates and grown overnight. […] The cells were fixed with 4% paraformaldehyde for 15 min at room temperature and then stained with 0.2% crystal violet. The assay was performed in triplicate. Images were obtained using an Olympus IX51 microscope.

[9] = test system: uPA activity in MDCK cells; experiment: Urokinase-type plasminogen activator (uPA) assay; format: cell-based, canine; conditions: HGF 100 ng/mL, 24 h, dose-dependent
Procedure: MDCK cells (1.5-2 ×10^3 cells per well) were plated in 96-well plate and grown overnight. […] The plate was processed for determination of plasminogen activity by first rinsing wells twice with DMEM (without phenol red), then adding 200 μL of reaction buffer [10%(v/v) 3 mM chromozym PL (Roche) in 100 mM glycine, 40%(v/v) 50 mM Tris (pH 8.2), 50%(v/v) 0.05 unit/mL plasminogen (Roche) in DMEM (without phenol red), and 0.2% Tween-20] to each well. After incubation at 37°C, 5% CO2 for 6 h, the absorbance of each well was read at 405 nm.

[10] = test system: EBC-1 human NSCLC xenograft; experiment: In vivo antitumor activity, EBC-1 xenograft
Procedure: . Animal procedures were performed according to institutional ethical guidelines of animal care. […]. After that, the well-developed tumors were cut into 1 mm^3 fragments and transplanted s.c. into the right flank of nude mice using a trocar. When the tumor volume reached 100-200 mm^3, the mice were randomly assigned into vehicle and treatment groups (n = 6 per group). […] The sizes of the tumors were measured twice per week using microcaliper. The tumor volume (TV) was calculated as: TV = (length×width^2)/2 and the individual relative tumor volume (RTV) was calculated as follows: RTV = Vt/V0, where Vt is the volume on each day, and V0 is the volume at the beginning of the treatment. RTV was shown on indicated days as the median RTV ± SE indicated for groups of mice.
Tumor specimens were fixed in 4% paraformaldehyde for 24 h. Tumor samples were subsequently paraffin-embedded, and sliced onto microscope slides. After dewaxing and blocking endogenous peroxidase activity with 3% H2O2, the sections were incubated with 1.5% normal goat serum, followed by overnight incubation at 4°C with anti-phospho-c-Met antibody (Y1234/1235), anti-CD31 antibody or anti-Ki67 antibody. Then, the sections were incubated with biotin-conjugated anti-rabbit IgG for 2 h at 37°C followed by incubating for 1 h with avidin-biotin-peroxidase complex (ABC) using a Vectastain ABC kit(Vector Laboratories). Staining was detected using the DAB (3, 3′-diaminobenzidine tetrahydrochloride) Liquid System (ZSGB-Bio) and imaged in 5 different fields of each section. Anti-phospho-c-Met and anti-CD31 antibody immunostained sections were counterstained using hematoxylin.

NCI-H441 cells [11] = experiment: HGF-induced Matrigel invasion assay; format: cell-based, human; conditions: NCI-H441, HGF 100 ng/mL, 24 h
Procedure: as §2
For the invasion assay, NCI-H441 cells were cultured in the top chambers containing Matrigel-coated membrane inserts (Matrigel, BD). The ensuing procedure was identical to the migration assay. The assay was performed in triplicate. Images were obtained using an Olympus BX51 microscope.

[12] = test system: c-Met phosphorylation and its downstream signaling; experiment: Immunoblotting of c-Met signaling in HGF-stimulated HUVEC cells; format: cell-based, human; conditions: Simm530 2 h then 100 ng/mL HGF 15 min
Procedure: Cells were cultured under regular growth conditions to exponential growth phase. […] Those cell lysates were subsequently resolved on 10% SDS-PAGE, and transferred to nitrocellulose membranes. Proteins were probed with specific antibody then subsequently with secondary horseradish peroxidase-conjugated antibody. Finally, immunoreactive proteins were detected using an enhanced chemiluminescence detection reagent (Pierce, Thermo Fisher Scientific Inc.).

[13] = test system: SNU-5 human gastric carcinoma xenograft; experiment: In vivo antitumor activity, SNU-5 xenograft; set-up: species or system nude mice
Procedure: Female nude mice (4-6 weeks) were housed five or six mice per cage in a specific pathogen-free room with a 12 h light/dark schedule at 25°C ± 1°C and were fed an autoclaved chow diet and water ad libitum. Animal procedures were performed according to institutional ethical guidelines of animal care. […] After that, the well-developed tumors were cut into 1 mm^3 fragments and transplanted s.c. into the right flank of nude mice using a trocar. […] The sizes of the tumors were measured twice per week using microcaliper. The tumor volume (TV) was calculated as: TV = (length×width^2)/2 and the individual relative tumor volume (RTV) was calculated as follows: RTV = Vt/V0, where Vt is the volume on each day, and V0 is the volume at the beginning of the treatment. RTV was shown on indicated days as the median RTV ± SE indicated for groups of mice. […] Tumor specimens were fixed in 4% paraformaldehyde for 24 h. Tumor samples were subsequently paraffin-embedded, and sliced onto microscope slides. […] Staining was detected using the DAB (3, 3'-diaminobenzidine tetrahydrochloride) Liquid System (ZSGB-Bio) and imaged in 5 different fields of each section. Anti-phospho-c-Met and anti-CD31 antibody immunostained sections were counterstained using hematoxylin. Serum levels of human IL-8 were detected by using Human IL-8 Quantikine ELISA Kit (R&D Systems, Inc.) follows the instructions.

[14] = test system: MMP-9 expression in NCI-H441 cells; experiment: Gelatin zymography of HGF-induced MMP-9 expression; format: cell-based, human; conditions: NCI-H441, HGF 100 ng/mL, 24 h, dose-dependent
Procedure: NCI-H441 cells were seeded in a six-well plate (5×10^5 per well) and incubated at 37°C. […] The conditioned medium was collected and centrifuged at 12,000 g for 15 min and concentrated by Micro centrifugal filter device (Millipore Corporation). Then the supernatants were collected and separated on 7.5% SDS-PAGE with 2 mg/mL gelatin incorporated into the gel mixture. Following electrophoresis at 4°C, the gels were rinsed briefly with distilled water and washed three times (15 min each) with 150 ml of 2.5% Triton X-100 solution on a rotary shaker. The gels were then incubated at 37°C for 18 h in 250 ml of 50 mmol/L Tris·HCl (pH 7.5) that contained 10 mmol/L CaCl2, 1 μM ZnCl2, 1% Triton X-100, and 0.02% NaN3. After incubation, the gels were stained with 100 ml of 50% methanol, 10% acetic acid, and 0.1% Coomassie blue R-250 for 3 h, then destained with 50% methanol and 10% acetic acid. Finally, the gels were immersed in distilled water for 20 min and quantified by densitometric analysis using Image Lab software (Bio-Rad Laboratories, Inc.).

Cn1cc(-c2cnc3nnc(C(F)(F)c4ccc5ncccc5c4)n3n2)cn1 [Simm530]
sub-G1 cell population (apoptosis) (EBC-1 cells [1]): no obvious sub-G1 cell population
effect on cell cycle distribution (EBC-1 cells [1]; dose-dependent, P<0.001): G1/S phase arrest
sub-G1 cell population (apoptosis) (MKN-45 cells [2]): no obvious sub-G1 cell population
effect on cell cycle distribution (MKN-45 cells [2]; dose-dependent, P<0.001): G1/S phase arrest
dose sufficient to block the movement of most cells (motility) (NCI-H441 cells [3]): 4 nM
IC50 (SNU-5 cells): 0.9 ± 0.2 nM
IC50 (EBC-1 cells [4]): 0.7 nM
IC50 (NCI-H1993 cells): 0.8 nM
IC50 (MKN-45 cells [5]): 0.7 ± 0.1 nM
effect on HGF-induced branching morphogenesis (MDCK cells [6]): strongly inhibited
IC50 at 72 h [7]: > 50000 nM
effect on HGF-induced cell scattering (MDCK cells [8]): strongly inhibited
effect on HGF-induced urokinase activity [9]: significantly inhibited
tumor response ([10]; 12.5 mg/kg oral twice daily): Tumor stasis
mice showing no signs of tumor ([10]; 100 mg/kg twice daily): 4 of the 6
tumor response ([10]; 50 and 100 mg/kg oral twice daily): tumor regression
intratumoral phosphorylation of c-Met ([10]; 2 hours after the final dosage, immunoblotting): marked and dose-dependent inhibition
CD31-positive endothelial cells (microvessel density) ([10]; IHC, 2 h after final administration): significant reduction
tolerance (body weight) ([10]; all tested dosages, data not shown): lack of significant weight loss
dose sufficient to block the movement of most cells (invasion) (NCI-H441 cells [11]): 4 nM
effect on c-Met phosphorylation and its downstream signaling [12]: potently inhibited
tumor response ([13]; 12.5 mg/kg and 25 mg/kg oral twice daily): tumor stasis and regression
intratumoral phosphorylation of c-Met ([13]; 2 hours after the final dosage, immunoblotting and IHC): marked and dose-dependent inhibition
IL-8 plasma level ([13]; human IL-8 ELISA, day 21, P<0.001): significant reduction
effect on HGF-induced MMP expression [14]: significantly inhibited
